# Data: BindingDB's records for patent US20250115591 (Inflazome, 2025)
# Target: NACHT, LRR and PYD domains-containing protein 3 (Homo sapiens, UniProt Q96P20)
# Test: THP-1 Cells Pyroptosis Assay
# Procedure: 1. Seed THP-1 cells (25,000 cells/well) containing 1.0 μg/ml LPS in 40μ of RPMI medium (without FBS) in 96-well, black walled, clear bottom cell culture plates coated with poly-D-lysine (VWR #734-0317)2. Add 5 μl compound (8 points half-log dilution, with […]) or vehicle (DMSO 0.1% FAC) to the appropriate wells3. Incubate for 3 hrs at 37° C. and 5% CO24. Add 5 μl nigericin (Sigma #N7143) (FAC 5 μM) to all wells5. Incubate for 1 hr at 37° C. and 5% CO26. At the end of the incubation period, spin plates at 300×g for 3 mins and remove supernatant7. Then add 50 μl of resazurin (Sigma #R7017) (FAC 100 μM resazurin in RPMI medium without FBS) and incubate plates for a further 1-2 hrs at 37° C. and 5% CO28. Plates were read in an Envision reader at Ex 560 nm and Em 590 nm9. IC50 data is fitted to a non-linear regression equation (log inhibitor vs response-variable slope 4-parameters)
# Chain of NACHT, LRR and PYD domains-containing protein 3 (Q96P20 whole entry, the tested form may be a part): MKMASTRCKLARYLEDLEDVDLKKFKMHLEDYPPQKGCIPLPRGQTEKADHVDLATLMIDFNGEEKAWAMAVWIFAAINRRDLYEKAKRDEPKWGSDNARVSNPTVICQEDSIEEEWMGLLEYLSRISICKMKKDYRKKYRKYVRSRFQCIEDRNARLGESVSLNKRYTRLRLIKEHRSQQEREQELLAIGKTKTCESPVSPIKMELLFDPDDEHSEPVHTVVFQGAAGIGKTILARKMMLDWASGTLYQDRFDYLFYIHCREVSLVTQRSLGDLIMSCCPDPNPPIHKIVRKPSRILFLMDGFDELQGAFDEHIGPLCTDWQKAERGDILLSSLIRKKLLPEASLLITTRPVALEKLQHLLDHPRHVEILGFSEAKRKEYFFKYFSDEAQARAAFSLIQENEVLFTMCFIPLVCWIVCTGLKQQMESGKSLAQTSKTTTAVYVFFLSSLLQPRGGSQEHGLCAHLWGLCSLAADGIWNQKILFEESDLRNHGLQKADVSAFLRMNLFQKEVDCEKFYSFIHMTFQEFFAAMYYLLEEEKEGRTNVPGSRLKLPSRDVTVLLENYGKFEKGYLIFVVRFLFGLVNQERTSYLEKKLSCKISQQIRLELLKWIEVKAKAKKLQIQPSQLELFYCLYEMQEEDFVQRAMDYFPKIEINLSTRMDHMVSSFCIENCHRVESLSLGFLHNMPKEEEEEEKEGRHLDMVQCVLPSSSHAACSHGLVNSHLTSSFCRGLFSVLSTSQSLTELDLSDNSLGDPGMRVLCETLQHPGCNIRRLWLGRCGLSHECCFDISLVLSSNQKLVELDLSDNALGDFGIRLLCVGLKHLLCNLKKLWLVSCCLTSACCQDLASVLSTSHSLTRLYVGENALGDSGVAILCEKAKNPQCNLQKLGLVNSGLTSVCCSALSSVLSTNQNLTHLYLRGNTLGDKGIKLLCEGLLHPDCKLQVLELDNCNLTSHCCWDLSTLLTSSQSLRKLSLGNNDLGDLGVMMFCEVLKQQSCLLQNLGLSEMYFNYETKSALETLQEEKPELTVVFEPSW
row,Compound,IC50
1,"CCCCCCn1cc(S(=O)(=O)NC(=O)Nc2c3c(cc4c2CCC4)CCC3)c(=O)[nH]c1=O [US20250115591, Example 17]",< 10 µM
2,"CN(C)C(=O)CN1CC(S(=O)(=O)NC(=O)Nc2c3c(cc4c2CCC4)CCC3)C1 [US20250115591, Example 21]",< 10 µM
3,"CCNC(=O)N1CCC(S(=O)(=O)NC(=O)Nc2c3c(cc4c2CCC4)CCC3)CC1 [US20250115591, Example 26]",< 10 µM
4,"CNC(=O)N1CCC(S(=O)(=O)NC(=O)Nc2c3c(cc4c2CCC4)CCC3)CC1 [US20250115591, Example 28]",< 10 µM
5,"CCNC(=O)N1CCC(S(=O)(=O)NC(=O)Nc2c3c(cc4c2CCC4)CCC3)C1 (stereo unspecified) [US20250115591, Example 30]",< 10 µM
6,"CC(C)NC(=O)N1CCCC(S(=O)(=O)NC(=O)Nc2c3c(cc4c2CCC4)CCC3)C1 (stereo unspecified) [US20250115591, Example 33]",< 10 µM
7,"CC(=O)N1CCC(S(=O)(=O)NC(=O)Nc2c3c(cc4c2CCC4)CCC3)C1 (stereo unspecified) [US20250115591, Example 38]",< 10 µM
8,"O=C(Nc1c2c(cc3c1CCC3)CCC2)NS(=O)(=O)C1CNC1 [US20250115591, Example 42]",< 10 µM
9,"CC(C)N1[C@@H]2CC[C@H]1C[C@@H](S(=O)(=O)NC(=O)Nc1c3c(cc4c1CCC4)CCC3)C2 [US20250115591, Example 45]",< 1 µM
10,"CCN1[C@@H]2CC[C@H]1C[C@@H](S(=O)(=O)NC(=O)Nc1c3c(cc4c1CCC4)CCC3)C2 [US20250115591, Example 52]",< 10 µM
11,"O=C(Nc1c2c(cc3c1CCC3)CCC2)NS(=O)(=O)C1CCNC1 (stereo unspecified) [US20250115591, Example 55]",< 10 µM
12,"CC(=O)N1CCCC(S(=O)(=O)NC(=O)Nc2c3c(cc4c2CCC4)CCC3)C1 (stereo unspecified) [US20250115591, Example 56]",< 10 µM
13,"CC(C)N1[C@@H]2CC[C@H]1C[C@H](S(=O)(=O)NC(=O)Nc1c3c(cc4c1CCC4)CCC3)C2 [US20250115591, Example 69]",< 1 µM
14,"CCN1[C@@H]2CC[C@H]1C[C@H](S(=O)(=O)NC(=O)Nc1c3c(cc4c1CCC4)CCC3)C2 [US20250115591, Example 70]",< 1 µM
15,"CC(=O)N1CC(S(=O)(=O)NC(=O)Nc2c3c(cc4c2CCC4)CCC3)C1 [US20250115591, Example 74]",< 10 µM
16,"COC(=O)CN1CC(S(=O)(=O)NC(=O)Nc2c3c(cc4c2CCC4)CCC3)C1 [US20250115591, Example 78]",< 10 µM
17,"CCC(C)N1CCC(S(=O)(=O)NC(=O)Nc2c3c(cc4c2CCC4)CCC3)C1 (stereo unspecified) [US20250115591, Example 82]",< 10 µM
18,"CCCCN1CC(S(=O)(=O)NC(=O)Nc2c3c(cc4c2CCC4)CCC3)C1 [US20250115591, Example 83]",< 10 µM
19,"N#CCN1CC(S(=O)(=O)NC(=O)Nc2c3c(cc4c2CCC4)CCC3)C1 [US20250115591, Example 87]",< 10 µM
20,"CC(C)(C)OC(=O)N1CC(N2CC(S(=O)(=O)NC(=O)Nc3c4c(cc5c3CCC5)CCC4)C2)C1 [US20250115591, Example 106]",< 10 µM
21,"CC(C)(C)OC(=O)/N=C(/NC(=O)OC(C)(C)C)N1CC(S(=O)(=O)NC(=O)Nc2c3c(cc4c2CCC4)CCC3)C1 [US20250115591, Example 112]",< 10 µM
22,"O=C(Nc1c2c(cc3c1CCC3)CCC2)NS(=O)(=O)C1CN(C2CNC2)C1 [US20250115591, Example 114]",< 10 µM
23,"CN(C(=O)OC(C)(C)C)/C(=N\C(=O)OC(C)(C)C)N1CC(S(=O)(=O)NC(=O)Nc2c3c(cc4c2CCC4)CCC3)C1 [US20250115591, Example 127]",< 10 µM
24,"CNC(=N)N1CC(S(=O)(=O)NC(=O)Nc2c3c(cc4c2CCC4)CCC3)C1 [US20250115591, Example 129]",< 10 µM
25,"CCC(C)N1CC(S(=O)(=O)NC(=O)Nc2c(C(C)C)cc(F)cc2C(C)C)C1 (stereo unspecified) [US20250115591, Example 143]",< 10 µM
26,"CN1CC(N2[C@@H]3CC[C@H]2C[C@@H](S(=O)(=O)NC(=O)Nc2c4c(cc5c2CCC5)CCC4)C3)C1 [US20250115591, Example 146]",< 10 µM
27,"CC(C)N1CC(S(=O)(=O)NC(=O)Nc2c3c(cc4c2CCC4)CCC3)CC1C(=O)N(C)C (stereo unspecified) [US20250115591, Example 148]",< 10 µM
28,"CCC(C)N1CC(S(=O)(=O)NC(=O)Nc2c(C(C)C)cc(Cl)cc2C(C)C)C1 (stereo unspecified) [US20250115591, Example 187]",< 10 µM

# Now from value to molecule:
row,IC50,Compound
1,< 10 µM,"CC(=O)N1CCC(S(=O)(=O)NC(=O)Nc2c3c(cc4c2CCC4)CCC3)CC1 [US20250115591, Example 3]"
2,< 10 µM,"Cn1cc(S(=O)(=O)NC(=O)Nc2c3c(cc4c2CCC4)CCC3)c(=O)n(C)c1=O [US20250115591, Example 16]"
3,< 1 µM,"O=C(Nc1c2c(cc3c1CCC3)CCC2)NS(=O)(=O)C1CN(C2CCC2)C1 [US20250115591, Example 18]"
4,< 1 µM,"CCN1CCC(S(=O)(=O)NC(=O)Nc2c3c(cc4c2CCC4)CCC3)C1 (stereo unspecified) [US20250115591, Example 37]"
5,< 1 µM,"O=C(Nc1c2c(cc3c1CCC3)CCC2)NS(=O)(=O)C1CN(C2CC2)C1 [US20250115591, Example 85]"
6,< 1 µM,"CC(C)(C)N1CC(S(=O)(=O)NC(=O)Nc2c3c(cc4c2CCC4)CCC3)C1 [US20250115591, Example 93]"
7,< 1 µM,"O=C(Nc1c2c(cc3c1CCC3)CCC2)NS(=O)(=O)C1CN(C2CCCCC2)C1 [US20250115591, Example 98]"
8,< 1 µM,"O=C(Nc1c2c(cc3c1CCC3)CCC2)NS(=O)(=O)C1CN(C2CCCC2)C1 [US20250115591, Example 99]"
9,< 1 µM,"N=C(N)N1CC(S(=O)(=O)NC(=O)Nc2c3c(cc4c2CCC4)CCC3)C1 [US20250115591, Example 113]"
10,< 1 µM,"C=CCN1CC(S(=O)(=O)NC(=O)Nc2c3c(cc4c2CCC4)CCC3)C1 [US20250115591, Example 132]"
11,< 1 µM,"COc1cc(-c2ccc3c(c2NC(=O)NS(=O)(=O)c2cn(C(C)C)c(=O)cn2)CCC3)ccn1 [US20250115591, Example 156]"
12,< 1 µM,"C[C@@H](O)Cn1cc(S(=O)(=O)NC(=O)Nc2c3c(cc4c2CCC4)CCC3)ccc1=O [US20250115591, Example 183]"
13,< 1 µM,"CCN1CCCC(S(=O)(=O)NC(=O)Nc2c3c(cc4c2CCC4)CCC3)CC1 (stereo unspecified) [US20250115591, Example 194]"
